Assay results from patent US20090017103A1, “Antisense oligonucleotides for prevention of metastasis formation of cancer cells” (priority 2003, published 2009).
Values joined by “and” are separate entries in the source; they are usually repeats but may differ in a detail not shown here. Equal entries are not always repeated. “Also recorded” adds a separate entry of the source. Marks after values point to notes of the source that are not given here.

Legend:
[1] = tested on: MDA-MB-231 breast cancer cells; assay: Clonogenicity assay (colony formation); type: cell-based, human; conditions: for inhibition of colony formation (colony growth inhibition): single exposure
Summary of the method: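 MDA-MB-231 cells given lipofectamine-complexed ASO (5, 10 or 20 μM, 12 h) and/or ErPC3 (10, 14, 20 μM, 24 h), singly or in sequential cycles, then grown 48-72 h. 5000 cells plated in methylcellulose/30% FBS; MTT-stained colonies (≥30 cells) counted after 5-7 days.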

MDA-MB-231^GFP cells [2] = assay: In vivo model with pretreated MDA-MB-231^GFP cells (osteolytic bone metastasis); set-up: species or system nude rats; lesion size of the rat(s) that developed lytic metastasis, % of control / lesion sizes with respect to all animals of the group compared to untreated control / lesion size of individual animal compared to the untreated control / T/C % (mean lesion size compared to untreated control): concentration or dose not given beside the values; conditions: for T/C × 100: mean lesion size vs untreated control rats; for rats in which formation of osteolytic metastasis was inhibited (no visible metastasis): cells pre-exposed to ASO, observation period of eight weeks; for Incidence of metastasis: cells pretreated in vitro (10 μM);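 on Mean size of lesion: mean lesion size in relative units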
MDA-MB-231^GFP cells [3] = assay: In vivo treatment with mini-osmotic pumps (osteolytic bone metastasis model);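 on Mean size of lesion: mean lesion size in relative units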;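 on Size of lesion (per animal): lesion size in relative units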; set-up: species or system nude rats; conditions: for X-ray scan of hind legs: lytic lesions (in words): FIG. 5-7; for T/C: vs NSO control; for T/C × 100: mean lesion size vs NSO control rats; for Incidence of metastasis: mini-osmotic pumps s.c., 7 mg/kg daily over four weeks
[4] = observation period 8 weeks, pretreated cells
[5] = pretreated cells, after eight weeks
[6] = pretreated cells, after four weeks

5′-GCT-TTC-TTC-GTT-TTC-ATT-TC-3′ [ASO-BSPII-6]
% Control ([1]; Exp. III a, repeated exposure 2 × 5 μM): 91%
Mean colony no. ([1]; Exp. III a, repeated exposure 2 × 5 μM, control 456): 415^6,8)
% Control ([1]; Exp. III a, repeated exposure 2 × 10 μM): 82%
Mean colony no. ([1]; Exp. III a, repeated exposure 2 × 10 μM, control 456): 373^8)
% Control ([1]; Exp. III a, repeated exposure 2 × 20 μM): 72%
Mean colony no. ([1]; Exp. III a, repeated exposure 2 × 20 μM, control 456): 326^8)
% Control ([1]; Experiment I, single treatment, 5 μM): 89%
Mean colony no. ([1]; Experiment I, single treatment, 5 μM, control 778): 692^6)
% Control ([1]; Experiment I, single treatment, 10 μM): 81%
Mean colony no. ([1]; Experiment I, single treatment, 10 μM, control 778): 632^7)
% Control ([1]; Experiment I, single treatment, 20 μM): 61%
Mean colony no. ([1]; Experiment I, single treatment, 20 μM, control 778): 478
% Control ([1]; Experiment III b, repeated exposure 2 × 5 μM): 70%
Mean colony no. ([1]; Experiment III b, repeated exposure 2 × 5 μM, control 517): 363^6,8)
% Control ([1]; Experiment III b, repeated exposure 2 × 10 μM): 55%
Mean colony no. ([1]; Experiment III b, repeated exposure 2 × 10 μM, control 517): 282^8)
% Control ([1]; Experiment III b, repeated exposure 2 × 20 μM): 49%
Mean colony no. ([1]; Experiment III b, repeated exposure 2 × 20 μM, control 517): 251^8)
inhibition of colony formation (colony growth inhibition) ([1]; 5 μM): 11%
inhibition of colony formation (colony growth inhibition) ([1]; 10 μM): 19%
inhibition of colony formation (colony growth inhibition) ([1]; 20 μM): 39%
repeated exposure compared with single exposure, colony formation (in words) ([1]; twofold vs single ASO exposure): no increased inhibition of colony formation as compared with single exposure
T/C × 100 (MDA-MB-231^GFP cells [2]; 4 weeks): 1.6
T/C × 100 (MDA-MB-231^GFP cells [2]; 6 weeks): 2.9
T/C × 100 (MDA-MB-231^GFP cells [2]; 8 weeks): 9.1
X-ray scan of hind legs: osteolytic lesions (in words) (MDA-MB-231^GFP cells [2]; FIG. 3 and FIG. 4, one rat each, cells pre-exposed): a minute osteolytic lesion in the tibia only; also recorded: a small lesion in the tibia
rats in which formation of osteolytic metastasis was inhibited (no visible metastasis) (MDA-MB-231^GFP cells [2]): two out of four
rats in which formation of osteolytic metastasis was inhibited (no visible metastasis) (MDA-MB-231^GFP cells [2]; listed as ASO-BSPII-06): two of four and 2 of 4
Incidence of metastasis (MDA-MB-231^GFP cells [2]; observation period 4 weeks): 1/4
Mean size of lesion (MDA-MB-231^GFP cells [2]; observation period 4 weeks, pretreated cells): 3.5 R.U.
Incidence of metastasis (MDA-MB-231^GFP cells [2]; observation period 6 weeks): 1/4
Mean size of lesion (MDA-MB-231^GFP cells [2]; observation period 6 weeks, pretreated cells): 8.8 R.U.
Incidence of metastasis (MDA-MB-231^GFP cells [2]; observation period 8 weeks): 2/4
Mean size of lesion (MDA-MB-231^GFP cells [2]; [4]): 31.5 R.U.
Size of lesion (per animal) (MDA-MB-231^GFP cells [2]; [4]): 106^5) R.U.
T/C % (mean lesion size compared to untreated control) (MDA-MB-231^GFP cells [2]; [5]): 9.1%
lesion size of individual animal compared to the untreated control (MDA-MB-231^GFP cells [2]; [5]): about 30% and 6%
animals in which formation of lytic metastases was prevented (MDA-MB-231^GFP cells [2]; [6]): three out of four
lesion size of individual animal compared to the untreated control (MDA-MB-231^GFP cells [2]; [6]): 6.4%
lesion size of individual animal compared to the untreated control (MDA-MB-231^GFP cells [2]; pretreated cells, after six weeks): about 12%
lesion size of the rat(s) that developed lytic metastasis (MDA-MB-231^GFP cells [2]; pretreated cells, week 4): 14 R.U.
lesion size of the rat(s) that developed lytic metastasis, % of control (MDA-MB-231^GFP cells [2]; pretreated cells, week 4, vs mean of the two control groups (197 R.U.)): 7%
lesion size of the rat(s) that developed lytic metastasis (MDA-MB-231^GFP cells [2]; pretreated cells, week 8): 63 R.U.
lesion size of the rat(s) that developed lytic metastasis, % of control (MDA-MB-231^GFP cells [2]; pretreated cells, week 8, vs mean of the two control groups (416 R.U.)): 15%
X-ray scan of hind legs: lytic lesions (in words) (MDA-MB-231^GFP cells [3]; eight weeks after tumor cell implantation): clear increase of lytic lesions in the tibia, however new formation of bone tissue at the edges of the lesions
X-ray scan of hind legs: lytic lesions (in words) (MDA-MB-231^GFP cells [3]; four weeks after tumor cell implantation, therapy from implantation): small lytic lesions in the tibia
X-ray scan of hind legs: lytic lesions (in words) (MDA-MB-231^GFP cells [3]; six weeks after tumor cell implantation): visible lytic lesions in the tibia
X-ray scan of hind legs: lytic lesions (in words) (MDA-MB-231^GFP cells [3]; ten weeks after tumor cell implantation): lytic lesions are no longer visible in the region of the tibia
animals that did not develop metastases (MDA-MB-231^GFP cells [3]; mini-osmotic pumps, 12 weeks): one animal out of the five
T/C (MDA-MB-231^GFP cells [3]; mini-osmotic pumps, week 4): 39%
T/C (MDA-MB-231^GFP cells [3]; mini-osmotic pumps, week 12): 2%
T/C × 100 (MDA-MB-231^GFP cells [3]; week 4): 39
Mean size of lesion (MDA-MB-231^GFP cells [3]; week 4, mini-osmotic pumps): 13 R.U.
Size of lesion (per animal) (MDA-MB-231^GFP cells [3]; week 4, mini-osmotic pumps): 11 R.U. and 0 R.U. and 32 R.U. and 8 R.U. and 23 R.U.
Incidence of metastasis (MDA-MB-231^GFP cells [3]; week 4): 4/5
T/C × 100 (MDA-MB-231^GFP cells [3]; week 6): 18
Mean size of lesion (MDA-MB-231^GFP cells [3]; week 6, mini-osmotic pumps): 32 R.U.
Size of lesion (per animal) (MDA-MB-231^GFP cells [3]; week 6, mini-osmotic pumps): 39 R.U. and 0 R.U. (2×) and 83 R.U. and 37 R.U.
Incidence of metastasis (MDA-MB-231^GFP cells [3]; week 6): 3/5
T/C × 100 (MDA-MB-231^GFP cells [3]; week 8): 11
Mean size of lesion (MDA-MB-231^GFP cells [3]; week 8, mini-osmotic pumps): 29 R.U.
Size of lesion (per animal) (MDA-MB-231^GFP cells [3]; week 8, mini-osmotic pumps): 52 R.U. and 0 R.U. (2×) and 50 R.U. and 43 R.U.
Incidence of metastasis (MDA-MB-231^GFP cells [3]; week 8): 3/5
T/C × 100 (MDA-MB-231^GFP cells [3]; week 9): 7
Mean size of lesion (MDA-MB-231^GFP cells [3]; week 9, mini-osmotic pumps): 28 R.U.
Size of lesion (per animal) (MDA-MB-231^GFP cells [3]; week 9, mini-osmotic pumps): 28 R.U. and 0 R.U. (2×) and 36 R.U. and 78 R.U.
Incidence of metastasis (MDA-MB-231^GFP cells [3]; week 9): 3/5
T/C × 100 (MDA-MB-231^GFP cells [3]; week 10): 5
Mean size of lesion (MDA-MB-231^GFP cells [3]; week 10, mini-osmotic pumps): 20 R.U.
Size of lesion (per animal) (MDA-MB-231^GFP cells [3]; week 10, mini-osmotic pumps): 17 R.U. and 0 R.U. (2×) and 29 R.U. and 52 R.U.
Incidence of metastasis (MDA-MB-231^GFP cells [3]; week 10): 3/5
T/C × 100 (MDA-MB-231^GFP cells [3]; week 12): 2
Mean size of lesion (MDA-MB-231^GFP cells [3]; week 12, mini-osmotic pumps): 9 R.U.
Size of lesion (per animal) (MDA-MB-231^GFP cells [3]; week 12, mini-osmotic pumps): 0 R.U. (3×) and 18 R.U. and 29 R.U.
Incidence of metastasis (MDA-MB-231^GFP cells [3]; week 12): 2/5
